Experiments:
[1] = tested on: skin irritation caused by Balsam of Peru; assay: Balsam of Peru skin irritation test on ventral forearms of panelists (skin redness, Minolta Chromameter); assay type: in vivo, human; details: topical; for Percent Reduction in the onset of irritation: Example 2, before Balsam of Peru
From the text: Eight female volunteer panelists between the ages of 21 and 55 having a history of skin sensitivity to Balsam of Peru are chosen for a study. […] The panelists have a history of skin reactivity to Balsam of Peru which manifests itself in the form of an immediate urticaria reaction. The test sites on the ventral forearms of the panelists are devoid of warts, nevi, moles, sunburn, suntan, scars and active dermal lesions. Pregnant or lactating volunteers are excluded. […] The composition is given time, about 20 minutes, to absorb into the skin on the forearm. Next, an irritant, Balsam of Peru, 8.00 percent in petrolatum, is applied to the test area of the skin and when redness appears within 30 to 40 minutes after application, Balsam of Peru is wiped off with a wet towel. Skin redness is measured with the Minolta Chromameter. Skin irritation is measured in terms of an increase in skin redness measured using a Minolta Chromameter and compared with a negative and a positive control. The positive control is the color of the skin treated solely with Balsam of Peru, and the negative control is the color of the skin treated with a cola […] solution in 10% hydroalcohol (1:1).

cAMP-PDE = details: in vitro; cited from earlier work
cGMP-PDE = details: in vitro; cited from earlier work
[2] = tested on: inflammatory parameters in atopic dermatitis; details: in vivo; cited from earlier work

Row | Structure (SMILES) | Percent Reduction in the onset of irritation ([1]; 1% concentration) | further results
1 | Nc1ncnc2c1ncn2C1CC2OP(=O)(O)OCC2O1 (centres unmarked) [2′-deoxy cAMP, 2′-deoxy adenosine 3 ′5′ cyclic monophosphate] | – | reduction in the onset of irritation ([1]; Example 1, 0.5 percent in magnesium buffer, applied about 20 minutes before 8.00 percent Balsam of Peru in petrolatum, eight female panelists): 74%; Percent Reduction in the onset of irritation ([1]; 0.5% concentration): 71%; inhibition of cAMP-PDE (cAMP-PDE): specific and potent in vitro inhibitors
2 | Nc1nc2c(ncn2[C@H]2C[C@@H]3OP(=O)(O)OC[C@H]3O2)c(=O)[nH]1 [2′-deoxy cGMP] | – | inhibition of cGMP-PDE (cGMP-PDE): specific and potent in vitro inhibitors
3 | COc1ccc(C2CNC(=O)NC2)cc1O[C@H]1C[C@@H]2CC[C@H]1C2 [CP80,633] | – | reduction of inflammatory parameters [2]: significant reduction of inflammatory parameters
4 | Cn1c(=O)c2c(ncn2C)n(C)c1=O [Caffeine, caffeine] | 45% | –
5 | CC(C)Cn1c(=O)n(C)c(=O)c2[nH]cnc21 [IBMX, 3-isobutyl 1-methyl xanthine] | 66% | –
6 | CC(=O)CCCCn1c(=O)c2c(ncn2C)n(C)c1=O [Pentoxifylline, pentoxifylline] | 50% | –
7 | CCCCOc1cc(CC2CNC(=O)N2)ccc1OC (centres unmarked) [Ro-12-1724] | 57% | –
8 | COc1ccc(C2CNC(=O)C2)cc1OC1CCCC1 (centres unmarked) [Rolipram] | 69% | –
9 | O=c1[nH]cnc2c1ncn2[C@@H]1O[C@@H]2COP(=O)(O)O[C@H]2[C@H]1O [cIMP, cyclic IMP] | 42% | –
